# According to US8119643B2, “Benzoimidazolyl-pyrazine compounds for inflammation and immune-related uses” (Synta Pharmaceuticals Corp., priority 2006, dated 2012):
# Test system: IL-2 production
# Assay: Inhibition of IL-2 production in PHA-activated Jurkat cells (ELISA)
# Assay type: cell-based
# Settings: Homo sapiens, PHA 2.5 μg/mL, 20 hours, IL-2 ELISA
# Protocol: Jurkat cells were placed in a 96 well plate (0.5 million cells per well in 1% FBS medium) then a test compound of this invention was added at different concentrations. After 10 minutes, the cells were activated with PHA (final concentration 2.5 μg/mL) and incubated for 20 hours at 37° C. under CO2. The final volume was 200 μL. Following incubation, the cells were centrifuged and the supernatants were collected and stored at −70° C. prior to assaying for IL-2 production. A commercial ELISA kit (IL-2 Eli-pair, Diaclone Research, Besancon, France) was used to detect production of IL-2, from which dose response curves were obtained. The IC50 value was calculated as the concentration at which 50% of maximum IL-2 production after stimulation was inhibited versus a non-stimulation control.
row,SMILES,IC50
1,"COc1ccc2c(c1)nc(C(F)(F)F)n2-c1cnc(NC(=O)c2cccc(I)c2)cn1 [Compound 112, 3-Iodo-N-[5-(5-methoxy-2-trifluoromethyl-benzoimidazol-1-yl)-pyrazin-2-yl]-benzamide]",173 nM
2,"CCOC(=O)c1cccc(C(=O)Nc2cnc(-n3c(C(F)(F)F)nc4cc(OC)ccc43)cn2)c1 [Compound 114, N-[5-(5-Methoxy-2-trifluoromethyl-benzoimidazol-1-yl)-pyrazin-2-yl]-isophthalamic acid ethyl ester]",88 nM
3,"COc1ccc2c(c1)nc(C(F)(F)F)n2-c1cnc(NCc2ccccc2)cn1 [Compound 115, Benzyl-[5-(5-methoxy-2-trifluoromethyl-benzoimidazol-1-yl)-pyrazin-2-yl]-amine]",> 1000 nM
4,"CCCCc1ccc(C(=O)Nc2cnc(-n3c(C(F)(F)F)nc4cc(OC)ccc43)cn2)cc1 [Compound 117, 4-Butyl-N-[5-(5-methoxy-2-trifluoromethyl-benzoimidazol-1-yl)-pyrazin-2-yl]-benzamide]",81 nM
5,"COc1ccc2c(c1)nc(C(F)(F)F)n2-c1cnc(NC(=O)c2ccc(C)cc2)cn1 [Compound 118, N-[5-(5-Methoxy-2-trifluoromethyl-benzoimidazol-1-yl)-pyrazin-2-yl]-4-methyl-benzamide]",40 nM
6,"COc1ccc2c(c1)nc(C(F)(F)F)n2-c1cnc(NC(=O)c2ccc(SC)cc2)cn1 [Compound 119, N-[5-(5-Methoxy-2-trifluoromethyl-benzoimidazol-1-yl)-pyrazin-2-yl]-4-methylsulfanyl-benzamide]",50 nM
7,"COc1ccc2c(c1)nc(C(F)(F)F)n2-c1cnc(NC(=O)c2cc(C)cc(C)c2)cn1 [Compound 121, N-[5-(5-Methoxy-2-trifluoromethyl-benzoimidazol-1-yl)-pyrazin-2-yl]-3,5-dimethyl-benzamide]",> 1000 nM
8,"COc1ccc2c(c1)nc(C(F)(F)F)n2-c1cnc(NC(=O)c2cccc(C(F)(F)F)c2)cn1 [Compound 125, N-[5-(5-Methoxy-2-trifluoromethyl-benzoimidazol-1-yl)-pyrazin-2-yl]-3-trifluoromethyl-benzamide]",780 nM
9,"CCCCCc1ccc(C(=O)Nc2cnc(-n3c(C(F)(F)F)nc4cc(OC)ccc43)cn2)cc1 [Compound 131, N-[5-(5-Methoxy-2-trifluoromethyl-benzoimidazol-1-yl)-pyrazin-2-yl]-4-pentyl-benzamide]",331 nM
10,"COc1ccc2c(c1)nc(C(F)(F)F)n2-c1cnc(NC(=O)c2ccc(C(C)(C)C)cc2)cn1 [Compound 132, 4-tert-Butyl-N-[5-(5-methoxy-2-trifluoromethyl-benzoimidazol-1-yl)-pyrazin-2-yl]-benzamide]",> 1000 nM
11,"CCOc1ccc(C(=O)Nc2cnc(-n3c(C(F)(F)F)nc4cc(OC)ccc43)cn2)cc1 [Compound 133, 4-Ethoxy-N-[5-(5-methoxy-2-trifluoromethyl-benzoimidazol-1-yl)-pyrazin-2-yl]-benzamide]",> 1000 nM
12,"COc1ccc2c(c1)nc(C(F)(F)F)n2-c1cnc(NC(=O)c2ccc(C(F)(F)F)cc2)cn1 [Compound 137, N-[5-(5-Methoxy-2-trifluoromethyl-benzoimidazol-1-yl)-pyrazin-2-yl]-4-trifluoromethyl-benzamide]",714 nM
13,"COc1ccc2c(c1)nc(C(F)(F)F)n2-c1cnc(NC(=O)c2ccc(Cl)c([N+](=O)[O-])c2)cn1 [Compound 139, 4-Chloro-N-[5-(5-methoxy-2-trifluoromethyl-benzoimidazol-1-yl)-pyrazin-2-yl]-3-nitro-benzamide]",> 1000 nM
14,"COc1ccc2c(c1)nc(C(F)(F)F)n2-c1cnc(NC(=O)c2ccc(C)c([N+](=O)[O-])c2)cn1 [Compound 140, N-[5-(5-Methoxy-2-trifluoromethyl-benzoimidazol-1-yl)-pyrazin-2-yl]-4-methyl-3-nitro-benzamide]",192 nM
15,"COc1ccc2c(c1)nc(C(F)(F)F)n2-c1cnc(NC(=O)c2ccc(C(C)C)cc2)cn1 [Compound 141, 4-Isopropyl-N-[5-(5-methoxy-2-trifluoromethyl-benzoimidazol-1-yl)-pyrazin-2-yl]-benzamide]",> 1000 nM
16,"COc1ccc2c(c1)nc(C(F)(F)F)n2-c1cnc(NC(=O)c2cccc(C)c2[N+](=O)[O-])cn1 [Compound 142, N-[5-(5-Methoxy-2-trifluoromethyl-benzoimidazol-1-yl)-pyrazin-2-yl]-3-methyl-2-nitro-benzamide]",324 nM
17,"COc1ccc2c(c1)nc(C(F)(F)F)n2-c1cnc(NC(=O)c2cc(F)c(F)cc2F)cn1 [Compound 143, 2,4,5-Trifluoro-N-[5-(5-methoxy-2-trifluoromethyl-benzoimidazol-1-yl)-pyrazin-2-yl]-benzamide]",178 nM
18,"COc1ccc2c(c1)nc(C(F)(F)F)n2-c1cnc(NC(=O)c2ccccc2C(F)(F)F)cn1 [Compound 145, N-[5-(5-Methoxy-2-trifluoromethyl-benzoimidazol-1-yl)-pyrazin-2-yl]-2-trifluoromethyl-benzamide]",99 nM

# Next, values leading:
row,IC50,SMILES
1,> 1000 nM,"COc1ccc2c(c1)nc(C(F)(F)F)n2-c1cnc(NC(=O)c2ccccc2OC)cn1 [Compound 111, 2-Methoxy-N-[5-(5-methoxy-2-trifluoromethyl-benzoimidazol-1-yl)-pyrazin-2-yl]-benzamide]"
2,22 nM,"COc1ccc2c(c1)nc(C(F)(F)F)n2-c1cnc(NC(=O)c2cccc(Cl)c2Cl)cn1 [Compound 113, 2,3-Dichloro-N-[5-(5-methoxy-2-trifluoromethyl-benzoimidazol-1-yl)-pyrazin-2-yl]-benzamide]"
3,170 nM,"COc1ccc2c(c1)nc(C(F)(F)F)n2-c1cnc(NC(=O)c2cccc(C)c2)cn1 [Compound 116, N-[5-(5-Methoxy-2-trifluoromethyl-benzoimidazol-1-yl)-pyrazin-2-yl]-3-methyl-benzamide]"
4,295 nM,"COc1ccc(C(=O)Nc2cnc(-n3c(C(F)(F)F)nc4cc(OC)ccc43)cn2)cc1 [Compound 120, 4-Methoxy-N-[5-(5-methoxy-2-trifluoromethyl-benzoimidazol-1-yl)-pyrazin-2-yl]-benzamide]"
5,73 nM,"COc1ccc2c(c1)nc(C(F)(F)F)n2-c1cnc(NC(=O)c2cc(C)ccc2C)cn1 [Compound 122, N-[5-(5-Methoxy-2-trifluoromethyl-benzoimidazol-1-yl)-pyrazin-2-yl]-2,5-dimethyl-benzamide]"
6,> 1000 nM,"CCOc1ccccc1C(=O)Nc1cnc(-n2c(C(F)(F)F)nc3cc(OC)ccc32)cn1 [Compound 123, 2-Ethoxy-N-[5-(5-methoxy-2-trifluoromethyl-benzoimidazol-1-yl)-pyrazin-2-yl]-benzamide]"
7,> 1000 nM,"COc1ccc(C(=O)Nc2cnc(-n3c(C(F)(F)F)nc4cc(OC)ccc43)cn2)c(OC)c1 [Compound 124, 2,4-Dimethoxy-N-[5-(5-methoxy-2-trifluoromethyl-benzoimidazol-1-yl)-pyrazin-2-yl]-benzamide]"
8,> 1000 nM,"COc1ccc2c(c1)nc(C(F)(F)F)n2-c1cnc(NC(=O)c2ccc(OC)c(OC)c2)cn1 [Compound 126, 3,4-Dimethoxy-N-[5-(5-methoxy-2-trifluoromethyl-benzoimidazol-1-yl)-pyrazin-2-yl]-benzamide]"
9,105 nM,"COc1ccc(C(=O)Nc2cnc(-n3c(C(F)(F)F)nc4cc(OC)ccc43)cn2)c(F)c1 [Compound 127, 2-Fluoro-4-methoxy-N-[5-(5-methoxy-2-trifluoromethyl-benzoimidazol-1-yl)-pyrazin-2-yl]-benzamide]"
10,187 nM,"COc1ccc2c(c1)nc(C(F)(F)F)n2-c1cnc(NC(=O)c2cccc(OC)c2OC)cn1 [Compound 128, 2,3-Dimethoxy-N-[5-(5-methoxy-2-trifluoromethyl-benzoimidazol-1-yl)-pyrazin-2-yl]-benzamide]"
11,> 1000 nM,"COc1cc(OC)cc(C(=O)Nc2cnc(-n3c(C(F)(F)F)nc4cc(OC)ccc43)cn2)c1 [Compound 129, 3,5-Dimethoxy-N-[5-(5-methoxy-2-trifluoromethyl-benzoimidazol-1-yl)-pyrazin-2-yl]-benzamide]"
12,130 nM,"COc1ccc2c(c1)nc(C(F)(F)F)n2-c1cnc(NC(=O)c2cc(Br)ccc2F)cn1 [Compound 130, 5-Bromo-2-fluoro-N-[5-(5-methoxy-2-trifluoromethyl-benzoimidazol-1-yl)-pyrazin-2-yl]-benzamide]"
13,> 1000 nM,"COc1ccc2c(c1)nc(C(F)(F)F)n2-c1cnc(NC(=O)c2ccc(Cl)cc2OC)cn1 [Compound 134, 4-Chloro-2-methoxy-N-[5-(5-methoxy-2-trifluoromethyl-benzoimidazol-1-yl)-pyrazin-2-yl]-benzamide]"
14,103 nM,"COc1ccc2c(c1)nc(C(F)(F)F)n2-c1cnc(NC(=O)c2cccc([N+](=O)[O-])c2C)cn1 [Compound 135, N-[5-(5-Methoxy-2-trifluoromethyl-benzoimidazol-1-yl)-pyrazin-2-yl]-2-methyl-3-nitro-benzamide]"
15,> 1000 nM,"COc1ccc2c(c1)nc(C(F)(F)F)n2-c1cnc(NC(=O)c2cc(OC)c(OC)cc2OC)cn1 [Compound 136, 2,4,5-Trimethoxy-N-[5-(5-methoxy-2-trifluoromethyl-benzoimidazol-1-yl)-pyrazin-2-yl]-benzamide]"
16,83 nM,"COc1ccc2c(c1)nc(C(F)(F)F)n2-c1cnc(NC(=O)c2ccc(F)cc2Br)cn1 [Compound 138, 2-Bromo-4-fluoro-N-[5-(5-methoxy-2-trifluoromethyl-benzoimidazol-1-yl)-pyrazin-2-yl]-benzamide]"
17,> 1000 nM,"COc1ccc2c(c1)nc(C(F)(F)F)n2-c1cnc(NC(=O)c2ccc(C(F)(F)F)cc2OC)cn1 [Compound 144, 2-Methoxy-N-[5-(5-methoxy-2-trifluoromethyl-benzoimidazol-1-yl)-pyrazin-2-yl]-4-trifluoromethyl-benzamide]"
